This passage reports IC50 results from patent publication US10265307B2, “Thiazolecarboxamides and pyridinecarboxamide compounds useful as Pim kinase inhibitors” (Incyte Corporation, priority 2013, dated 2019).

Assay type in all cases: biochemical
Experiment [1] has as its target Pim-1 (Homo sapiens (Human), UniProt P11309). In words: Pim-1 kinase assay. The conditions noted are these: 1 mM ATP; read-out: Pim1 IC50. Here is the method: Supplementation of the STOP buffer with beads and stopping the reactions were done under reduced light. Prior to the stopping reactions STOP buffer with beads was pre-incubated for 1 h in the dark at room temperature. After stopping the reactions, plates were incubated for 1 h in the dark at room temperature before reading on a PHERAstar FS plate reader (BMG Labtech) under reduced light.

For experiment [2], the target named is Pim-2 (Homo sapiens (Human), UniProt Q9P1W9). In words: Pim-2 kinase assay. The conditions noted are these: 1 mM ATP; read-out: Pim2 IC50.
In experiment [3] the target is Pim-3 (Homo sapiens (Human), UniProt Q86V86). Kind of experiment: Pim-3 kinase assay. Particulars: 1 mM ATP; read-out: Pim3 IC50. In a few lines:
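AlphaScreen-type assay: […] Pim-3 phosphorylates 0.05 μM biotin-BAD peptide with 1 mM ATP, 1 h at 25 °C, pH 7.5 Tris buffer with MgCl2 and DTT. EDTA stop with phospho-BAD (Ser112) antibody and donor/acceptor beads, 1 h dark incubation before reading.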

Structures are written as SMILES. pIC50: −log10 of the molar value.

Chain of Pim-1 (P11309 whole entry): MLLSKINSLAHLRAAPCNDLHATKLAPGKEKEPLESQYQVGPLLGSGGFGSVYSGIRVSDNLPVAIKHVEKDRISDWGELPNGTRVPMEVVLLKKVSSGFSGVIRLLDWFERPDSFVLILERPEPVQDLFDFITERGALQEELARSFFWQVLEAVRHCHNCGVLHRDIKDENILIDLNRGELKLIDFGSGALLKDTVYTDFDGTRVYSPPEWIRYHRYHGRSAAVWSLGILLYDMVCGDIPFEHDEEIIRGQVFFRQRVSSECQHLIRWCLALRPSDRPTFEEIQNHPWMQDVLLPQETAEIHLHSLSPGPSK
Chain of Pim-2 (Q9P1W9 whole entry): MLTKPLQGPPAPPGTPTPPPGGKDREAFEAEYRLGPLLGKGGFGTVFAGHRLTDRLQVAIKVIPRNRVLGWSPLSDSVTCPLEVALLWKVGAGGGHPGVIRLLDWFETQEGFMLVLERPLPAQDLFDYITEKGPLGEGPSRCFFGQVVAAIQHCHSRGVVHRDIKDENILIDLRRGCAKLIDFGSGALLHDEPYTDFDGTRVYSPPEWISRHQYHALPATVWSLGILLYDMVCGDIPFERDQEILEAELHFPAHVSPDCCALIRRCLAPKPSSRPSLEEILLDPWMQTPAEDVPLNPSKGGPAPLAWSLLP

One may read the pIC50 as −log10 of the IC50, conventionally taken in molar units. In the case of `C[C@@H]1C[C@H](N)CN(c2c(NC(=O)c3ccc(F)c(-c4c(F)cc(C(C)(C)O)cc4F)n3)cnc3c2CCC3O)C1` (single isomer, unassigned) [67 (Diastereoisomer 1)], the pIC50 in experiment [1], in experiment [2] and in experiment [3] was not below 7.00 in each case.
For `C[C@H]1CN(c2c(NC(=O)c3ccc(F)c(-c4c(F)cccc4F)n3)cnc3c2CCC3O)C[C@@H](N)C1(C)O` (single isomer, unassigned) [63 (Diastereoisomer 3)], the pIC50 in experiment [1], in experiment [2] and in experiment [3] was not below 7.00 throughout.
`Nc1sc(-c2c(F)cccc2F)nc1C(=O)Nc1cnc2c(c1N1CCC[C@H](N)C1)CCC2O` (single isomer, unassigned) [15 (Diastereoisomer 1)]: the pIC50 in experiment [1], in experiment [2] and in experiment [3] was not below 7.00 throughout.
With `Nc1sc(-c2c(F)cccc2F)nc1C(=O)Nc1cnc2ccccc2c1N1CCC[C@H](N)C1` [Example 1, 5-Amino-N-{4-[(3S)-3-aminopiperidin-1-yl]quinolin-3-yl}-2-(2,6-difluorophenyl)-1,3-thiazole-4-carboxamide], the values for the pIC50 in experiment [1], in experiment [2] and in experiment [3] were not below 7.00, 6.56 and not below 7.00, respectively.
Consider `COCc1cc(F)c(-c2nc(C(=O)Nc3cnc4c(c3N3C[C@H](C)C[C@H](N)C3)CCC4O)ccc2F)c(F)c1` (single isomer, unassigned) [64 (Diastereoisomer 1)], for which the pIC50 in experiment [1], in experiment [2] and in experiment [3] was not below 7.00 each time.
On to `COC1CCc2c1ncc(NC(=O)c1nc(-c3c(F)cccc3F)sc1N)c2N1CCC[C@H](N)C1` (stereo partly drawn) [Example 17, 5-Amino-N-{4-[(3S)-3-aminopiperidin-1-yl]-7-methoxy-6,7-dihydro-5H-cyclopenta[b]pyridin-3-yl}-2-(2,6-difluorophenyl)-1,3-thiazole-4-carboxamide], for which the pIC50 in experiment [1] is not below 7.00; in experiment [2], 6.00 to 7.00; in experiment [3], not below 7.00.
Turning to `CC1(O)CCc2c1ncc(NC(=O)c1nc(-c3c(F)cccc3F)sc1N)c2N1CCC[C@H](N)C1` (single isomer, unassigned) [19 (Diastereoisomer 1)], the figures for the pIC50 in experiment [1], in experiment [2] and in experiment [3] were not below 7.00, less than 5.70 and 6.00 to 7.00, respectively.
`Nc1sc(-c2c(F)cccc2F)nc1C(=O)Nc1cnc2c(c1N1C[C@@H](N)C[C@@H](C(F)(F)F)C1)CCO2` [Example 42, 5-Amino-N-{4-[(3S,5R)-3-amino-5-(trifluoromethyl)piperidin-1-yl]-2,3-dihydrofuro[2,3-b]pyridin-5-yl}-2-(2,6-difluorophenyl)-1,3-thiazole-4-carboxamide]: the pIC50 in experiment [1], in experiment [2] and in experiment [3] was not below 7.00 each time.
With `C[C@H]1CN(c2c(NC(=O)c3ccc(F)c(-c4c(F)cccc4F)n3)cnc3c2CCC3)C[C@@H](N)[C@@H]1O` [Example 52, N-{4-[(3R,4R,5S)-3-Amino-4-hydroxy-5-methylpiperidin-1-yl]-6,7-dihydro-5H-cyclopenta[b]pyridin-3-yl}-6-(2,6-difluorophenyl)-5-fluoropyridine-2-carboxamide], the pIC50 in experiment [1], in experiment [2] and in experiment [3] was not below 7.00 each time.
As to `Nc1sc(-c2c(F)cccc2F)nc1C(=O)Nc1cnc2sccc2c1N1CCC[C@H](N)C1` [Example 3, 5-Amino-N-{4-[(3S)-3-aminopiperidin-1-yl]thieno[2,3-b]pyridin-5-yl}-2-(2,6-difluorophenyl)-1,3-thiazole-4-carboxamide], the pIC50 in experiment [1], in experiment [2] and in experiment [3] was not below 7.00 in each case.
On to `Nc1sc(-c2c(F)cccc2F)nc1C(=O)Nc1cnc2c(c1N1CCC[C@H](N)C1)CCO2` [Example 9, 5-Amino-N-{4-[(3S)-3-aminopiperidin-1-yl]-2,3-dihydrofuro[2,3-b]pyridin-5-yl}-2-(2,6-difluorophenyl)-1,3-thiazole-4-carboxamide], for which the pIC50 in experiment [1], in experiment [2] and in experiment [3] was not below 7.00 throughout.
Turning to `C[C@H]1CN(c2c(NC(=O)c3nc(-c4c(F)cccc4F)c(F)cc3N)cnc3c2CCO3)C[C@@H](N)[C@@H]1O` [Example 71, 3-Amino-N-{4-[(3R,4R,5S)-3-amino-4-hydroxy-5-methylpiperidin-1-yl]-2,3-dihydrofuro[2,3-b]pyridin-5-yl}-6-(2,6-difluorophenyl)-5-fluoropyridine-2-carboxamide], the pIC50 in experiment [1], in experiment [2] and in experiment [3] was not below 7.00 in each case.
As for `COc1ccc(F)c(-c2nc(C(=O)Nc3cnc4c(c3N3CCC[C@H](N)C3)CCC4O)ccc2F)c1F` (single isomer, unassigned) [55 (Diastereoisomer 2)], the pIC50 in experiment [1], in experiment [2] and in experiment [3] was not below 7.00 each time.
With `Nc1sc(-c2c(F)cccc2F)nc1C(=O)Nc1cnc2ccsc2c1N1CC[C@H](O)[C@H](N)C1` (single isomer, unassigned) [Example 30, 5-Amino-N-{7-[3.4-cis-3-amino-4-hydroxypiperidin-1-yl]thieno[3,2-b]pyridin-6-yl}-2-(2,6-difluorophenyl)-1,3-thiazole-4-carboxamide], the negative logarithm of the IC50 (pIC50) in experiment [1] was not below 7.00; in experiment [2], 6.00 to 7.00; in experiment [3], not below 7.00.
As to `CSc1cc(F)c(-c2nc(C(=O)Nc3cnc4c(c3N3CCC[C@H](N)C3)CCC4O)ccc2F)c(F)c1` (single isomer, unassigned) [58 (Diastereoisomer 2)], the pIC50 in experiment [1] was not below 7.00; in experiment [2], 6.00 to 7.00; in experiment [3] it was not below 7.00.
As to `C[C@@H]1C[C@H](N)CN(c2c(NC(=O)c3ccc(F)c(-c4c(F)cccc4F)n3)cnc3c2CCO3)C1` [Example 39, N-{4-[(3S,5R)-3-Amino-5-methylpiperidin-1-yl]-2,3-dihydrofuro[2,3-b]pyridin-5-yl}-6-(2,6-difluorophenyl)-5-fluoropyridine-2-carboxamide], the pIC50 in experiment [1], in experiment [2] and in experiment [3] was not below 7.00 throughout.
Consider `Nc1sc(-c2c(F)cccc2F)nc1C(=O)Nc1cnc2c(c1N1CCC[C@H](N)C1)CCC2` [Example 14, 5-Amino-N-{4-[(3S)-3-aminopiperidin-1-yl]-6,7-dihydro-5H-cyclopenta[b]pyridin-3-yl}-2-(2,6-difluorophenyl)-1,3-thiazole-4-carboxamide], for which the pIC50 in experiment [1], in experiment [2] and in experiment [3] was not below 7.00 in each case.
On to `COc1ccc(F)c(-c2nc(C(=O)Nc3cnc4c(c3N3CCC[C@H](N)C3)CCC4O)c(N)s2)c1F` (single isomer, unassigned) [53 (Diastereoisomer 2)], for which the negative logarithm of the IC50 (pIC50) in experiment [1], in experiment [2] and in experiment [3] was not below 7.00 each time.
Take `Nc1sc(-c2c(F)cccc2F)nc1C(=O)Nc1cnc2c(c1N1CCC[C@H](N)C1)CCCN2` [Example 31, 5-Amino-N-{4-[(3S)-3-aminopiperidin-1-yl]-5,6,7,8-tetrahydro-1,8-naphthyridin-3-yl}-2-(2,6-difluorophenyl)-1,3-thiazole-4-carboxamide]: the pIC50 in experiment [1], in experiment [2] and in experiment [3] was not below 7.00 each time.
For the compound `N[C@H]1CCCN(c2c(NC(=O)c3csc(-c4c(F)cccc4F)n3)cnc3[nH]ncc23)C1` [Example 35, N-{4-[(3S)-3-aminopiperidin-1-yl]-1H-pyrazolo[3,4-b]pyridin-5-yl}-2-(2,6-difluorophenyl)-1,3-thiazole-4-carboxamide], the results for the pIC50 in experiment [1], in experiment [2] and in experiment [3] were less than 7.40, less than 5.70 and less than 7.40, respectively.
As for `N[C@H]1CCCN(c2c(NC(=O)c3csc(-c4c(F)cccc4F)n3)cnc3sccc23)C1` [Example 4, N-{4-[(3S)-3-Aminopiperidin-1-yl]thieno[2,3-b]pyridin-5-yl}-2-(2,6-difluorophenyl)-1,3-thiazole-4-carboxamide], the negative-log IC50 (pIC50) is not below 7.00 in experiment [1], less than 5.70 in experiment [2] and not below 7.00 in experiment [3].
In the case of `Nc1sc(-c2c(F)cccc2F)nc1C(=O)Nc1cnc2c(c1N1CC[C@H](O)[C@H](N)C1)CCC2` (single isomer, unassigned) [Example 27, 5-Amino-N-{4-[3.4-cis-3-amino-4-hydroxypiperidin-1-yl]-6,7-dihydro-5H-cyclopenta[b]pyridin-3-yl}-2-(2,6-difluorophenyl)-1,3-thiazole-4-carboxamide], the negative-log IC50 (pIC50) in experiment [1], in experiment [2] and in experiment [3] was not below 7.00 throughout.
`N[C@H]1CCCN(c2c(NC(=O)c3csc(-c4c(F)cccc4F)n3)cnc3[nH]ccc23)C1` [Example 8, N-{4-[(3S)-3-Aminopiperidin-1-yl]-1H-pyrrolo[2,3-b]pyridin-5-yl}-2-(2,6-difluorophenyl)-1,3-thiazole-4-carboxamide]: the values for the pIC50 in experiment [1], in experiment [2] and in experiment [3] were not below 7.00, less than 5.70 and not below 7.00, respectively.
With `C[C@@H]1C[C@H](N)CN(c2c(NC(=O)c3nc(-c4c(F)cccc4F)sc3N)cnc3c2CCO3)C1` [Example 36, 5-Amino-N-{4-[(3S,5R)-3-amino-5-methylpiperidin-1-yl]-2,3-dihydrofuro[2,3-b]pyridin-5-yl}-2-(2,6-difluorophenyl)-1,3-thiazole-4-carboxamide], the pIC50 in experiment [1], in experiment [2] and in experiment [3] was not below 7.00 in each case.
